≈ marks a conversion by molar mass, not a printed value. Where a SMILES comes first, the peptide text is derived from it. [ ]: non-standard residue; d: D form. Ac6c = NC1(C(=O)O)CCCCC1; Api = NC1(C(=O)O)CCNCC1; Aib = CC(C)(N)C(=O)O

What all share (format): functional
Test [1] in a line: % helicity of the compound.
The subject of a further test is Escherichia coli. Put plainly: In vitro antibacterial activity of the peptide was tested against Escherichia coli.
Another test deals with Staphylococcus aureus. Kind of test: In vitro antibacterial activity of the peptide was tested against Staphylococcus aureus.
Test [2] concerns Mus musculus. Kind of test: In vivo antimicrobial activity of 500 microg peptide against Brucella abortus in chronically infected BALB/c mice.
Test [3] relates to Mus musculus. Put plainly: In vivo antimicrobial activity of 1 mg peptide against Brucella abortus in chronically infected BALB/c mice.

With `CC(C)(N)C(=O)NC(C)(C)C(=O)N[C@@H](CCCCN)C(=O)N[C@H](CCCCN)C(=O)NC(C)(C)C(=O)NC(C)(C)C(=O)N[C@@H](CCCCN)C(=O)NC(C)(C)C(=O)NC(C)(C)C(=O)N[C@H](CCCCN)C(=O)N[C@@H](CCCCN)C(=O)NC(C)(C)C(=O)NC(C)(C)C(=O)N[C@H](CCCCN)C(=O)O`, the Helicity in test [1] was determined as 42%.
Still for that read-out and setting: next, `CC(C)(N)C(=O)NC(C)(C)C(=O)N[C@@H](CCCCN)C(=O)N[C@H](CCCCN)C(=O)NC(C)(C)C(=O)NC(C)(C)C(=O)N[C@@H](CCCCN)C(=O)NC(C)(C)C(=O)NC(C)(C)C(=O)N[C@H](CCCCN)C(=O)N[C@@H](CCCCN)C(=O)O`: 35%; `CC(C)(N)C(=O)NC(C)(C)C(=O)N[C@H](CCCCN)C(=O)NC1(C(=O)NC(C)(C)C(=O)NC(C)(C)C(=O)N[C@H](CCCCN)C(=O)NC2(C(=O)NC(C)(C)C(=O)NC(C)(C)C(=O)O)CCNCC2)CCNCC1`: 43%; `NCCCC[C@H](NC(=O)[C@@H](CCCCN)NC(=O)C1(NC(=O)C2(NC(=O)[C@H](CCCCN)NC(=O)C3(NC(=O)C4(NC(=O)[C@@H](CCCCN)NC(=O)[C@H](CCCCN)NC(=O)C5(N)CCCCC5)CCCCC4)CCCCC3)CCCCC2)CCCCC1)C(=O)O`: 43%.
`CC(=O)N[C@@H](CCCCN)C(=O)N[C@@H](CCCCN)C(=O)NC(C)(C)C(=O)NC(C)(C)C(=O)N[C@@H](CCCCN)C(=O)NC(C)(C)C(=O)NC(C)(C)C(=O)N[C@@H](CCCCN)C(=O)N[C@@H](CCCCN)C(=O)NC(C)(C)C(=O)NC(C)(C)C(N)=O` (Ac-KK[Aib][Aib]K[Aib][Aib]KK[Aib][Aib]-NH2): the minimum inhibitory concentration (MIC) in the test with Escherichia coli came out at 6.6 µM (≈ 7.99 µg/mL); in the test with Staphylococcus aureus, 212 µM (≈ 257 µg/mL). The Reduction in the test with Mus musculus [2] is listed as 30%.
With `NCCCC[C@H](NC(=O)[C@H](CCCCN)NC(=O)C1(NC(=O)C2(NC(=O)[C@H](CCCCN)NC(=O)C3(NC(=O)C4(NC(=O)[C@H](CCCCN)NC(=O)[C@@H](N)CCCCN)CCCCC4)CCCCC3)CCCCC2)CCCCC1)C(=O)NC1(C(N)=O)CCCCC1` (H-KK[Ac6c][Ac6c]K[Ac6c][Ac6c]KK[Ac6c]-NH2), the MIC against Escherichia coli stood at 5.7 µM (≈ 7.32 µg/mL); against Staphylococcus aureus it was 2.8 µM (≈ 3.59 µg/mL).
For `NCCCC[C@H](NC(=O)[C@H](CCCCN)NC(=O)C1(NC(=O)C2(NC(=O)[C@H](CCCCN)NC(=O)C3(NC(=O)C4(NC(=O)[C@H](CCCCN)NC(=O)[C@@H](N)CCCCN)CCCCC4)CCCCC3)CCCCC2)CCCCC1)C(=O)NC1(C(=O)NC2(C(N)=O)CCCCC2)CCCCC1` (H-KK[Ac6c][Ac6c]K[Ac6c][Ac6c]KK[Ac6c][Ac6c]-NH2), the MIC is 5.2 µM (≈ 7.33 µg/mL) with Escherichia coli and 2.6 µM (≈ 3.66 µg/mL) in the test with Staphylococcus aureus.
Turning to `CC(C)(NC(=O)C(C)(C)NC(=O)[C@H](CCCCN)NC(=O)[C@H](CCCCN)NC(=O)C(C)(C)NC(=O)C(C)(C)NC(=O)[C@H](CCCCN)NC(=O)C(C)(C)NC(=O)C(C)(C)NC(=O)[C@H](CCCCN)NC(=O)[C@@H](N)CCCCN)C(N)=O` (H-KK[Aib][Aib]K[Aib][Aib]KK[Aib][Aib]-NH2), the values for the MIC in the test on Escherichia coli and against Staphylococcus aureus were 55 µM (≈ 64.3 µg/mL) and over 220 µM, respectively. Besides, in the test with Mus musculus [2], the Reduction is recorded as under 63%.
As to `NCCCC[C@H](NC(=O)[C@H](CCCCN)NC(=O)C1(NC(=O)C2(NC(=O)[C@H](CCCCN)NC(=O)C3(NC(=O)C4(NC(=O)[C@H](CCCCN)NC(=O)[C@H](CCCCN)NC(=O)C5(NC(=O)C6(NC(=O)[C@@H](N)CCCCN)CCCCC6)CCCCC5)CCCCC4)CCCCC3)CCCCC2)CCCCC1)C(=O)NC1(C(N)=O)CCCCC1` (H-K[Ac6c][Ac6c]KK[Ac6c][Ac6c]K[Ac6c][Ac6c]KK[Ac6c]-NH2), the minimal inhibitory concentration (MIC) in the test on Escherichia coli is 4.5 µM (≈ 7.48 µg/mL); with Staphylococcus aureus it was 2.2 µM (≈ 3.66 µg/mL).
In the case of `CC(C)(NC(=O)C(C)(C)NC(=O)[C@H](CCCCN)NC(=O)[C@H](CCCCN)NC(=O)C(C)(C)NC(=O)C(C)(C)NC(=O)[C@H](CCCCN)NC(=O)C(C)(C)NC(=O)C(C)(C)NC(=O)[C@H](CCCCN)NC(=O)[C@H](CCCCN)NC(=O)C(C)(C)NC(=O)C(C)(C)NC(=O)[C@@H](N)CCCCN)C(N)=O` (H-K[Aib][Aib]KK[Aib][Aib]K[Aib][Aib]KK[Aib][Aib]-NH2), the minimum inhibitory concentration (MIC) against Escherichia coli came to 5.5 µM (≈ 8.07 µg/mL); with Staphylococcus aureus it was 11 µM (≈ 16.1 µg/mL). This compound displayed a Reduction with Mus musculus [2] of under 73%.
On the same counts, the results for `CC(C)(N)C(=O)NC(C)(C)C(=O)NC1(C(=O)N[C@@H](CCCCN)C(=O)NC(C)(C)C(=O)NC(C)(C)C(=O)NC2(C(=O)N[C@@H](CCCCN)C(=O)NC(C)(C)C(=O)NC(C)(C)C(N)=O)CCNCC2)CCNCC1` (H-[Aib][Aib][Api]K[Aib][Aib][Api]K[Aib][Aib]-NH2) are 7.7 µM (≈ 7.98 µg/mL), 123 µM (≈ 127 µg/mL) and 90%.
On to H-KAAKKAAKAAKKAA-NH2, for which the MIC with Escherichia coli and in the test on Staphylococcus aureus was over 178 µM each time. In addition, the Reduction in the test on Mus musculus [3] stood at 6%.

For the origin of these results see ChEMBL document CHEMBL1129634, “Antimicrobial alpha, alpha-dialkylated amino acid rich peptides with in-vivo activity against an intracellular pathogen” (1996).
